# Experimental data reported in patent publication US20060223779A1, “Method of screening for inhibitors of human Fatty Acid-CoA Ligase 4” (priority 2000, published 2006).
# Experiments:
# [1] = system: COX-2 stable 293 cells; assay: Apoptosis in stably transfected 293 cells with inducible COX-2 over-expression; assay type: cell-based, human; details: for effect on the prevention of apoptosis by COX-2: AA 300 μM, COX-2 over-expressing cells; for reduction of fatty acid-induced apoptosis by inducing COX-2 over-expression: COX-2 over-expression induced, n=3
# Protocol: (A) Conditional expression level of FACL4 and COX-2 in stably transfected lines. Cells were treated with (+) or without (−) ponasterone (1 μg/ml) for 48 hr, and Western blotting was carried out with anti-FACL4 and anti-COX-2 antibodies, respectively. The loading was normalized with an anti-β actin antibody (ICN Biomedicals). […] The 293 cells stably transfected with an empty control vector (Ctl), FACL4 cDNA, COX-2 cDNA, and both FACL4 and COX-2 cDNAs were uninduced (−Pon) or induced for over-expression (+Pon) as in A. AA (300 μM) was added after 24 hr of induction and apoptosis was determined 44 hr later. […] The plot is a comparison of the relative apoptosis levels among the stable lines and is representative of three independent experiments. The values shown are the averages of triplicate determinations. […] Cells were uninduced (−Pon) or induced for over-expression as above. […] COX inhibitors were administered 6 hr later as indicated. AA (300 μM) was then added after 2 hr and apoptosis was determined 44 hr later. The plot is prepared as in B, and is a representative result from three independent experiments, in which triplicates were performed. Wt=wild-type, Mut=mutant, Met=50 μM 6-methoxy-2-naphthyl acetic acid, Indo=10 μM indomethacin. […] The COX-2, FACL4/COX-2 stable and control cells carrying an empty vector were induced for 48 hr, washed and incubated with 20 μM AA at 37° C. for 30 min. The amount of PGE2 synthesized was determined by ELISA. […] (E) The levels of free AA in the stable lines. The [^3H]
# (§1) Cell Death Detection ELISA. Cells were plated on 96 well-plates at 1×10^4 cells per well. AA was applied and apoptotic death was determined after 44 hr with the Cell Death Detection ELISA (Boehringer Mannheim).
# Stable cell lines. The ecdysone inducible system (Invitrogen) was used to construct stable lines over-expressing human FACL4, COX-2, COX-2 mutant, and both FACL4 and COX-2. […] The cDNAs were cloned into pIND(SP1) (Neomycin^r). The cDNA constructs, or the empty vector pIND(SP1) were transfected into EcR293 cells, which were then selected in 400 μg/ml geneticin and 400 μg/ml zeocin. […] The double stable line was generated by stably transfecting the COX-2 stable cells with another pIND(SP1)-FACL4 cDNA construct, in which the FACL4 cDNA was cloned into a pIND(SP1) (hygromycin^r) vector. The cells were selected in 400 μg/ml geneticin, 400 μg/ml zeocin, and 50 μg/ml hygromycin B. The positive colonies were screened as described above.
# [2] = system: FACL4/COX-2 double stable cells; assay: Cell survival of FACL4/COX-2 double stable cells after TNFα or A23187; assay type: cell-based, human
# Protocol: FIG. 5: Enzymatic “sinks” for free arachidonic acid protect against TNFα_ and calcium ionophore_mediated cell killing. (A) Determination of cell survival. The cells were induced (+Pon) or not (−Pon) for 24 hr, and TNFα (1 ng/ml) or the calcium ionophore A23187 (5 μM) was added, and the cells were incubated for another 72 hr. The surviving fraction was determined and is plotted relative to that of the same line without TNFα or A23187 treatment. Ctl denotes control cells harboring an empty vector, while FACL4/COX-2 denotes the double stable line. (B) Measurement of the free AA. The FACL4/COX-2 cells were prelabeled with [^3H] AA, induced, and stimulated with A23187 (5 μM), and [^3H] AA release was measured at the indicated time intervals. The values are from one experiment that is representative of four independent determinations.
# Stable cell lines. The ecdysone inducible system (Invitrogen) was used to construct stable lines over-expressing human FACL4, COX-2, COX-2 mutant, and both FACL4 and COX-2. […] The cDNAs were cloned into pIND(SP1) (Neomycin^r). The cDNA constructs, or the empty vector pIND(SP1) were transfected into EcR293 cells, which were then selected in 400 μg/ml geneticin and 400 μg/ml zeocin. A number of single colonies were screened for over-expression of FACL4, COX-2 wild type, and COX-2 mutant by immunoblotting against anti-FACL4 (See Y. Cao et al., 467 FEBS Lett. 263-267 (2000)), and anti-COX-2 antibodies (a gift from Dr. Jacques Maclouf), and by measurement of the CoA ligase activity for FACL4 (See D. B. Wilson et al., 257 J. Biol. Chem. 3510-3515 (1992)), or the PGE2 secretion for COX-2 wild type (ELISA assay, Assay Design, Inc.). The double stable line was generated by stably transfecting the COX-2 stable cells with another pIND(SP1)-FACL4 cDNA construct, in which the FACL4 cDNA was cloned into a pIND(SP1) (hygromycin^r) vector. The cells were selected in 400 μg/ml geneticin, 400 μg/ml zeocin, and 50 μg/ml hygromycin B. The positive colonies were screened as described above.
# (§2) Cell survival. Cell viability was determined with the crystal violet staining (See M. Hayakawa et al., 268 J. Biol. Chem. 11290-11295 (1993).
# [3] = system: 293 cells; assay: Cell survival (crystal violet staining) in 293 cells; assay type: cell-based, human; details: not shown
# Protocol: (§3) FIG. 3: Arachidonic acid induces apoptosis via activation of caspase 3. (A) Determination of cell survival. AA was added to 293 cells at the indicated concentrations and the surviving fraction of cells was determined after 44 hr. The values shown are relative to the viability of cells that were not exposed to AA. (B) Increased apoptosis in cells exposed to AA. Cells were treated with AA (300 μM) or palmitic acid (300 μM) under the same conditions as in A, and then apoptosis was detected with an ELISA. The mean values from triplicate determinations are shown. […] The 293 cells were treated with AA (300 μM; +AA) or vehicle alone (−AA) for 44 hr. The nuclei were stained with DAPI, and DNA strand breaks in individual cells were detected with a fluorescent TUNEL assay. The upper panels are the same field of cells (−AA) photographed under UV (left panels) and FITC filters (right panels). The lower panels illustrate apoptotic cells (+AA). The magnification is 80×. (D) Immunostaining with an anti-active caspase 3 antibody. Upper panels, control cells (−AA); lower panels, cells exposed to 300 μM AA. Left panels, DAPI staining; right panels, immunostaining with an antibody selective for active caspase 3. The magnification is 100×. […] The 293 cells were preincubated with caspase inhibitors (including DMQD, a caspase 3 inhibitor, and YVAD, a caspase 1 and 4 inhibitor (Peptide Institute)) for 1 hr at the indicated concentrations, AA (300 μM) was added, and apoptosis was determined 44 hr later. The values represent the means from triplicate determinations.
# as §2
# [4] = system: 293 cells; assay: Apoptosis by Cell Death Detection ELISA in 293 cells; assay type: cell-based, human; details: for effect of antioxidant pretreatment on AA-induced apoptosis: antioxidant 1 hr, then AA 200 μM
# Protocol: as §3, §1
# [5] = system: colon and prostate cancer cells; details: by down-regulating Bcl-2; literature reports; cited from earlier work
# [6] = system: HT 29 cells; assay: Apoptosis by Cell Death ELISA in HT 29 cells; assay type: cell-based
# Protocol: HT 29 Cells were plated in 96 wells. Triacsin C and AA were added (in A), or triacsin C with either indomethacin (Indo) or sulindac (Sul) (in B) were added at the indicated concentrations. Indomethacin and sulindac are both cyclooxygenase (COX) inhibitors. Apoptosis was determined by Cell Death ELISA 44 hr later (A), and 72 hr later (B), respectively. […] The values shown are the means of triplicate determinations.
# as §1
compound,measurement,setting,value
COc1ccc2cc(CC(=O)O)ccc2c1 [6-methoxy-2-naphthylacetic acid],effect on the prevention of apoptosis by COX-2,[1]; 50 μM,abolished the prevention of apoptosis by COX-2
same,effect on the improvement in cell survival in the double stable cells,"[2]; double stable cells, not shown",partially abolished the improvement in cell survival
CCCCC[C@H](O)/C=C/C=C\C/C=C\C/C=C\CCCC(=O)O [15-HETE],effect on cell survival,[3]; 293 cells,did not affect cell survival
"CC/C=C\C/C=C\C/C=C\C/C=C\C/C=C\C/C=C\CCC(=O)O [DHA, docosahexaenoic acid]",fold-increase in apoptosis after fatty acid treatment,[1]; 100 μM,15.1 fold
same,reduction of fatty acid-induced apoptosis by inducing COX-2 over-expression,[1],18.5%
"CC/C=C\C/C=C\C/C=C\C/C=C\C/C=C\CCCC(=O)O [EPA, eicosapentaenoic acid]",fold-increase in apoptosis after fatty acid treatment,[1]; 200 μM,9.1 fold
same,reduction of fatty acid-induced apoptosis by inducing COX-2 over-expression,[1],34.0%
CC(Cc1ccc(O)c(O)c1)C(C)Cc1ccc(O)c(O)c1 (stereo not shown) [NDGA],induction of apoptosis,[4]; 293 cells,induced apoptosis
CS(=O)(=O)Nc1ccc([N+](=O)[O-])cc1OC1CCCCC1 [NS398],reported effect on apoptosis,[5],enhance the induction of apoptosis
CCCCC[C@H](O)/C=C/[C@H]1[C@H](O)CC(=O)[C@@H]1C/C=C\CCCC(=O)O [PGE2],cell viability in the presence of exogenous AA,[3]; 50 μM added directly,did not improve cell viability
CCCCC[C@H](O)/C=C/[C@H]1C(=O)C=C[C@@H]1C/C=C\CCCC(=O)O [PGJ2],cell viability in the presence of exogenous AA,[3]; 5 μM added directly,did not improve cell viability
CS(=O)(=O)c1ccc(-n2nc(C(F)(F)F)cc2-c2ccc(F)cc2)cc1 [SC-58125],reported effect on apoptosis,[5],enhance the induction of apoptosis
O=C1O[C@H]([C@@H](O)CO)C(O)=C1O [ascorbic acid],effect of antioxidant pretreatment on AA-induced apoptosis,"[4]; 293 cells, 44 hr",apoptosis decreased significantly
COc1ccc2c(c1)c(CC(=O)O)c(C)n2C(=O)c1ccc(Cl)cc1 [indomethacin],effect on the prevention of apoptosis by COX-2,[1]; 10 μM,did not alter the apoptosis response
CCCCCCCC/C=C\CCCCCCCC(=O)O [oleic acid],induction of apoptosis by other fatty acids compared with AA,[4],did not cause the same response
CCCCCCCCCCCCCCCC(=O)O [palmitic acid],induction of apoptosis by other fatty acids compared with AA,[4],did not cause the same response
same,apoptosis (mono- and oligo-nucleosomes) over the control,"[4]; 293 cells, 300 μM, 44 hr",no increase
same,fold-increase in apoptosis after fatty acid treatment,[1]; 200 μM,4.2 fold
same,reduction of fatty acid-induced apoptosis by inducing COX-2 over-expression,[1],8.1%
CCC/C=C/C/C=C/C=C/C=N/NN=O [triacsin C],cell death with triacsin C alone,[6]; 2 μM,did not cause cell death
same,increase in apoptosis compared to control cells,[6]; 10 μM,9 fold
same,induction of apoptosis,[6]; Cell Death ELISA,induced apoptosis in a concentration-dependent manner
same,increase of the apoptosis-inducing effect of triacsin C in the presence of sulindac,"[6]; plus sulindac, 72 hr",4-8 fold
same,apoptosis with triacsin C when indomethacin was added,"[6]; triacsin C 2 μM plus indomethacin, 72 hr",induced apoptosis
same,sensitization to AA-induced apoptosis,"[6]; triacsin C plus AA, 44 hr",sensitized cells to AA-induced apoptosis
Cc1c(C)c2c(c(C)c1O)CCC(C)(C(=O)O)O2 (stereo not shown) [trolox],effect of antioxidant pretreatment on AA-induced apoptosis,"[4]; 293 cells, 44 hr",apoptosis decreased significantly
TNFα,"surviving fraction, induced cells","[2]; FACL4/COX-2 double stable cells induced with ponasterone, TNFα 1 ng/ml or A23187 5 μM, 72 hr, n=3",70.5%
same,"surviving fraction, uninduced cells","[2]; FACL4/COX-2 double stable cells without induction, TNFα 1 ng/ml or A23187 5 μM, 72 hr, n=3",43.5%
apo-transferrin: a membrane-impermeable antioxidant,effect of antioxidant pretreatment on AA-induced apoptosis,"[4]; 293 cells, 44 hr",did not alter AA-induced apoptosis
tocopherol,effect of antioxidant pretreatment on AA-induced apoptosis,"[4]; 293 cells, 44 hr",apoptosis decreased significantly
z-YVAD-fmk,blocking of AA-induced apoptosis by caspase inhibitor,"[4]; 293 cells preincubated 1 hr with inhibitor, AA 300 μM, 44 hr",not
